PubChem BioAssay AID1919014 (Molecular Pharmacology Branch, DTP, NCI, 2023)

Tested on: NCI-H1341 complex spheroids, percent test/control
Assay: Anticancer human tumor NCI-H1341 cell line growth inhibition [AhR];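 further: spheroids exposed to agents for seven days before readout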
Conditions: for IC50: curve of first compound; for viability, T/C: stronger effect = lower value
Description: Multicellular complex tumor spheroid response to aryl hydrocarbon receptor antagonists in combination with a variety of drugs and investigational agents in selected tumor cell lines
The current study was undertaken to assess response to aryl hydrocarbon receptor antagonists in combination with standard-of-care drugs and investigational agents in solid tumor complex spheroid models. Complex spheroids include a stromal component modeled by human endothelial cells (HUVEC) and fibroblasts modeled by human mesenchymal stem cells (MSCs). The concentration ranges selected for each drug and investigational agent were based upon clinically achievable concentrations if the clinical Cmax of the agent was known.
Compounds. The drugs and investigational agents: BAY 2416964 (NSC825713), GNF351 (NSC835774), CH-223191 (NSC835775), CPI-455 (NSC825282), aza-TdCyd (NSC777586), decitabine (NSC127716), belinostat (NSC758774), entinostat (NSC756642), pevonedistat (NSC761192), tazemetostat (NSC777109), talazoparib (NSC765396), olaparib (NSC753686), selinexor (NSC780203), nedisertib (M3814, NSC802822), bortezomib (NSC756655), venetoclax (NSC766270), doxorubicin (NSC123127), elimusertib (BAY189344, NSC800525), ceralasertib (AZD6738, NSC777638), TAK-243 (NSC785004), alisertib (NSC759677), etoposide (NSC141540), topotecan (NSC609699), eribulin (NSC707389), gemcitabine (NSC613327), carboplatin (NSC241240), cisplatin (NSC119875), and SN-38 (NSC673596) were obtained from the National Cancer Institute (NCI) Developmental Therapeutics Program Chemical Repository (32). The FDA-approved anticancer drug set is available from the Developmental Therapeutics Program at https://dtp.cancer.gov/organization/dscb/obtaining/available plates.htm. […] The stock solutions were prepared in dimethyl sulfoxide (DMSO, Sigma-Aldrich, St. Louis, MO, cat. D2650), except for the platinum compounds which were prepared in saline (Quality Biological, Gaithersburg, MD, cat. 114-055-101), at 800-fold the tested concentration and stored at -70 degrees C prior to their use. All drugs and investigational agents were tested over a range starting from a high concentration at or near the clinical Cmax and decreasing in half-log increments. If the clinical Cmax for an agent had not been determined, the highest concentration tested was 10 microM (Table 1).
Cell Culture. All cells were maintained in an incubator at 37 degrees C and 5% CO2 with 95% humidity. The PDC lines were cultured according to standard operating procedures established by the NCI PDMR (https://pdmr.cancer.gov). Briefly, all PDCs were thawed and cultured in Matrigel-coated flasks prepared with a working solution of 1X Ham's F-12 nutrient mix, without supplementation (Invitrogen, Waltham, MA, cat. 11765054), 100 U/mL penicillin-streptomycin (Invitrogen, cat. 15140122), and 2.5% Matrigel (Corning Inc., Corning, NY, cat. 354248) for the first three passages. All PDCs were cultured in complete DMEM/F-12 media containing advanced DMEM/F-12 (Invitrogen, cat. 12634028), 4.9% defined fetal bovine serum, heat inactivated (HyClone Laboratories Inc., Logan, UT, cat. SH30070.03HI), 389 ng/mL hydrocortisone (Sigma-Aldrich, cat. H4001), 9.7 ng/mL human EGF recombinant protein (Invitrogen, cat. PHG0313), 23.4 microg/mL adenine (Sigma-Aldrich, cat. A2786), 97.3 U/mL penicillin-streptomycin (Invitrogen, cat. 15140122), 1.9 mM L-glutamine (Invitrogen, cat. 25030081), and 9.7 microM Y-27632 dihydrochloride (Tocris Bioscience, Bristol, United Kingdom, cat. 1254). The PDCs were cultured in complete DMEM/F12 media without 10 microM Y-27632 dihydrochloride for at least two passages prior to the screen. The established cell lines NCI-H1341 and […] were cultured in DMEM/F-12, HEPES (Invitrogen, cat. 11330032), 5% defined fetal bovine serum (HyClone Laboratories Inc., cat. SH30070.03), ITS premix universal culture supplement [insulin (5 microg/mL), transferrin (5 microg/mL), and selenious acid (5 ng/mL)] […]

[1] = second compound 0.1 µM, first compound 0.0316 µM
[2] = second compound 0.1 µM, first compound 0.1 µM
[3] = second compound 0.316 µM, first compound 0.0316 µM
[4] = second compound 0.316 µM, first compound 0.1 µM
[5] = second compound 1 µM, first compound 0.0316 µM
[6] = second compound 1 µM, first compound 0.1 µM
[7] = second compound 3.16 µM, first compound 0.0316 µM
[8] = second compound 3.16 µM, first compound 0.1 µM
[9] = second compound 10 µM, first compound 0.0316 µM
[10] = second compound 10 µM, first compound 0.1 µM

SMILES: CC[C@@]1(O)C(=O)OCc2c1cc1n(c2=O)Cc2cc3c(CN(C)C)c(O)ccc3nc2-1 + Cc1ccccc1N=Nc1ccc(NC(=O)c2ccnn2C)c(C)c1
- IC50 (second compound 0.1 µM): 59.1 nM
- IC50 (second compound 0.316 µM): > 100 nM
- IC50 (second compound 1 µM): 67.1 nM
- IC50 (second compound 3.16 µM): > 100 nM
- IC50 (second compound 10 µM): 35.2 nM
- viability, T/C (second compound 0.1 µM, first compound 0.000316 µM): 103%
- viability, T/C (second compound 0.1 µM, first compound 0.001 µM): 99.8%
- viability, T/C (second compound 0.1 µM, first compound 0.00316 µM): 91.1%
- viability, T/C (second compound 0.1 µM, first compound 0.01 µM): 80.2%
- viability, T/C [1]: 51.8%
- viability, T/C [2]: 47.5%
- viability, T/C (second compound 0.316 µM, first compound 0.000316 µM): 99.5%
- viability, T/C (second compound 0.316 µM, first compound 0.001 µM): 83.4%
- viability, T/C (second compound 0.316 µM, first compound 0.00316 µM): 97.7%
- viability, T/C (second compound 0.316 µM, first compound 0.01 µM): 74.6%
- viability, T/C [3]: 49.9%
- viability, T/C [4]: 52.9%
- viability, T/C (second compound 1 µM, first compound 0.000316 µM): 97.4%
- viability, T/C (second compound 1 µM, first compound 0.001 µM): 83.5%
- viability, T/C (second compound 1 µM, first compound 0.00316 µM): 82.3%
- viability, T/C (second compound 1 µM, first compound 0.01 µM): 70.2%
- viability, T/C [5]: 57.2%
- viability, T/C [6]: 45.8%
- viability, T/C (second compound 3.16 µM, first compound 0.000316 µM): 76.6%
- viability, T/C (second compound 3.16 µM, first compound 0.001 µM): 94.7%
- viability, T/C (second compound 3.16 µM, first compound 0.00316 µM): 65.5%
- viability, T/C (second compound 3.16 µM, first compound 0.01 µM): 64.2%
- viability, T/C [7]: 45.2%
- viability, T/C [8]: 52.9%
- viability, T/C (second compound 10 µM, first compound 0.000316 µM): 46.4%
- viability, T/C (second compound 10 µM, first compound 0.001 µM): 58%
- viability, T/C (second compound 10 µM, first compound 0.00316 µM): 51.6%
- viability, T/C (second compound 10 µM, first compound 0.01 µM): 49.8%
- viability, T/C [9]: 49.6%
- viability, T/C [10]: 48.6%

SMILES: CCN(c1cc(-c2ccc(CN3CCOCC3)cc2)cc(C(=O)NCc2c(C)cc(C)[nH]c2=O)c1C)C1CCOCC1 + CC(CO)NC(=O)c1cc(-c2ccc(Cl)cc2)nn(-c2cnn(C)c2)c1=O
- IC50 (second compound 0.1 µM): > 3000 nM
- IC50 (second compound 0.316 µM): > 3000 nM
- IC50 (second compound 1 µM): > 3000 nM
- IC50 (second compound 3.16 µM): > 3000 nM
- IC50 (second compound 10 µM): > 3000 nM
- viability, T/C (second compound 0.1 µM, first compound 0.00949 µM): 89.1%
- viability, T/C (second compound 0.1 µM, first compound 0.03 µM): 72.4%
- viability, T/C (second compound 0.1 µM, first compound 0.0949 µM): 84%
- viability, T/C (second compound 0.1 µM, first compound 0.3 µM): 68.1%
- viability, T/C (second compound 0.1 µM, first compound 0.949 µM): 75.2%
- viability, T/C (second compound 0.1 µM, first compound 3 µM): 57.6%
- viability, T/C (second compound 0.316 µM, first compound 0.00949 µM): 81.9%
- viability, T/C (second compound 0.316 µM, first compound 0.03 µM): 77%
- viability, T/C (second compound 0.316 µM, first compound 0.0949 µM): 77.9%
- viability, T/C (second compound 0.316 µM, first compound 0.3 µM): 65.8%
- viability, T/C (second compound 0.316 µM, first compound 0.949 µM): 65.7%
- viability, T/C (second compound 0.316 µM, first compound 3 µM): 59.7%
- viability, T/C (second compound 1 µM, first compound 0.00949 µM): 91.7%
- viability, T/C (second compound 1 µM, first compound 0.03 µM): 73.6%
- viability, T/C (second compound 1 µM, first compound 0.0949 µM): 78%
- viability, T/C (second compound 1 µM, first compound 0.3 µM): 63%
- viability, T/C (second compound 1 µM, first compound 0.949 µM): 63.1%
- viability, T/C (second compound 1 µM, first compound 3 µM): 62%
- viability, T/C (second compound 3.16 µM, first compound 0.00949 µM): 84.1%
- viability, T/C (second compound 3.16 µM, first compound 0.03 µM): 82.5%
- viability, T/C (second compound 3.16 µM, first compound 0.0949 µM): 74.9%
- viability, T/C (second compound 3.16 µM, first compound 0.3 µM): 71.4%
- viability, T/C (second compound 3.16 µM, first compound 0.949 µM): 61.9%
- viability, T/C (second compound 3.16 µM, first compound 3 µM): 62.4%
- viability, T/C (second compound 10 µM, first compound 0.00949 µM): 67.5%
- viability, T/C (second compound 10 µM, first compound 0.03 µM): 79.2%
- viability, T/C (second compound 10 µM, first compound 0.0949 µM): 73.3%
- viability, T/C (second compound 10 µM, first compound 0.3 µM): 70.4%
- viability, T/C (second compound 10 µM, first compound 0.949 µM): 65.7%
- viability, T/C (second compound 10 µM, first compound 3 µM): 57.4%

SMILES: COc1cc(C2c3cc4c(cc3C(OC3OC5COC(C)OC5C(O)C3O)C3COC(=O)C23)OCO4)cc(OC)c1O (stereo not given) + Cc1cncc(-c2nc(NCCc3c[nH]c4ccccc34)c3ncn(C(C)C)c3n2)c1
- IC50 (second compound 0.1 µM): 416 nM
- IC50 (second compound 0.316 µM): 611 nM
- IC50 (second compound 1 µM): 283 nM
- IC50 (second compound 3.16 µM): 233 nM
- IC50 (second compound 10 µM): < 31.6 nM
- viability, T/C [1]: 74.3%
- viability, T/C [2]: 89.4%
- viability, T/C (second compound 0.1 µM, first compound 0.316 µM): 54.7%
- viability, T/C (second compound 0.1 µM, first compound 1 µM): 36.6%
- viability, T/C (second compound 0.1 µM, first compound 3.16 µM): 34.1%
- viability, T/C (second compound 0.1 µM, first compound 10 µM): 34%
- viability, T/C [3]: 79.5%
- viability, T/C [4]: 76.3%
- viability, T/C (second compound 0.316 µM, first compound 0.316 µM): 62.2%
- viability, T/C (second compound 0.316 µM, first compound 1 µM): 40.9%
- viability, T/C (second compound 0.316 µM, first compound 3.16 µM): 35.1%
- viability, T/C (second compound 0.316 µM, first compound 10 µM): 34.2%
- viability, T/C [5]: 74.9%
- viability, T/C [6]: 72.9%
- viability, T/C (second compound 1 µM, first compound 0.316 µM): 47.6%
- viability, T/C (second compound 1 µM, first compound 1 µM): 36%
- viability, T/C (second compound 1 µM, first compound 3.16 µM): 40.5%
- viability, T/C (second compound 1 µM, first compound 10 µM): 34.2%
- viability, T/C [7]: 76.1%
- viability, T/C [8]: 61.4%
- viability, T/C (second compound 3.16 µM, first compound 0.316 µM): 41.7%
- viability, T/C (second compound 3.16 µM, first compound 1 µM): 44%
- viability, T/C (second compound 3.16 µM, first compound 3.16 µM): 35.7%
- viability, T/C (second compound 3.16 µM, first compound 10 µM): 32.7%
- viability, T/C [9]: 30.6%
- viability, T/C [10]: 27.4%
- viability, T/C (second compound 10 µM, first compound 0.316 µM): 23.1%
- viability, T/C (second compound 10 µM, first compound 1 µM): 23.5%
- viability, T/C (second compound 10 µM, first compound 3.16 µM): 14%
- viability, T/C (second compound 10 µM, first compound 10 µM): 14.1%
